The structures appear in SMILES notation.

A short description of the first data set: log P by reversed-phase HPLC (C 18), acidic range. It is filed as physicochemical. The following applies: marked a): acidic range, 0.1% aqueous phosphoric acid, acetonitrile; HPLC reversed-phase column (C 18); 43° C. As for the experimental part:
Temperature: 43° C. (a) Mobile phases for the determination in the acidic range: 0.1% aqueous phosphoric acid, acetonitrile; linear gradient from 10% acetonitrile to 90% acetonitrile—the corresponding measurement results are marked ^a) in Table 1.
Take `CC1CC(=O)C(C(=O)c2ccc(Cl)c(NC(=O)N3CCCO3)c2Cl)=C(O)C1` (racemic) [Example 3-61]: the logP entry is reported as “(I-2) logP = 2.25^a)”.

As to `CON(C)C(=O)Nc1c(Cl)ccc(C(=O)C2=C(O)C(C)(C)CCC2=O)c1Cl` [Example 2-1], the logP entry is listed as “(I-2) logP = 2.61^a)”.

Consider `CC1(C)CCC(=O)C(C(=O)c2ccc(Cl)c(NC(=O)N3CCCCO3)c2Cl)=C1O` [Example 2-69], for which the logP result is listed as “(I-2) logP = 2.83^a)”.

Regarding `CON(C)C(=O)Nc1c(Cl)ccc(C(=O)C2=C(O)CC(C)(C)CC2=O)c1Cl` [Example 4-1], the logP entry is reported as “(I-2) logP = 2.54^a)”.

As for `CC1(C)CCC(=O)C(C(=O)c2ccc(Cl)c(NC(=O)N3CCCO3)c2Cl)=C1O` [Example 2-61], the logP entry is “(I-2) logP = 2.57^a)”.

In the case of `CC1(C)CC(=O)C(C(=O)c2ccc(Cl)c(NC(=O)N3CCCCO3)c2Cl)=C(O)C1` [Example 4-69], the logP entry was “(I-2) logP = 2.76^a)”.

The data set is the same for the next values; noted with them: marked a): acidic range, 0.1% aqueous phosphoric acid/acetonitrile gradient, HPLC C 18, 43° C.
On to `O=C(Nc1c(Cl)ccc(C(=O)C2=C(O)CCCC2=O)c1Cl)NC1CC1` [Example 1-13], for which the logP result is “(I-2) logP = 1.77^a)”.

Regarding `O=C1CCCC(O)=C1C(=O)c1ccc(Cl)c(NC(=O)N2CCCCC2)c1Cl` [Example 1-105], the logP entry was “(I-2) logP = 2.26^a)”.

As for `COCCN(CCOC)C(=O)Nc1c(Cl)ccc(C(=O)C2=C(O)CCCC2=O)c1Cl` [Example 1-134], the logP result is listed as “(I-2) logP = 2.40^a)”.

As to `O=C(NCC1CC1)Nc1c(Cl)ccc(C(=O)C2=C(O)CCCC2=O)c1Cl` [Example 1-171], the logP entry was “(I-2) logP = 2.05^a)”.

As for `COC(CNC(=O)Nc1c(Cl)ccc(C(=O)C2=C(O)CCCC2=O)c1Cl)OC` [Example 1-35], the logP result is on record as “(I-2) logP = 1.72^a)”.

With `COC(=O)c1ccc(Cl)c(NC(=O)NN(C)C)c1Cl` [IIIa-7], the logP entry is given as “logP = 1.64^a)”.

With `O=C1CCCC(O)=C1C(=O)c1ccc(Cl)c(NC(=O)N2CCCO2)c1Cl` [Example 1-151], the logP result is reported as “(I-2) logP = 1.93^a)”.

On to `Cn1ccsc1=NC(=O)Nc1c(Cl)ccc(C(=O)C2=C(O)CCCC2=O)c1Cl` [Example 1-162], for which the logP entry is recorded as “(I-2) logP = 1.96^a)”.

`CON(C)C(=S)Nc1c(Cl)ccc(C(=O)C2=C(O)CCCC2=O)c1Cl` [Example 1-159]: the logP entry is “(I-2) logP = 2.28^a)”.

On to `COC(=O)c1ccc(C(F)(F)F)cc1NC(=O)N(C)OC` [IIIa-10], for which the logP result is recorded as “logP = 3.35^a)”.

Regarding `CN(C)C(=O)Nc1c(Cl)ccc(C(=O)C2=C(O)CCCC2=O)c1Cl` [Example 1-10], the logP entry is recorded as “(I-2) logP = 1.64^a)”.

As to `CN1CCN(C(=O)N(C)c2cc(C(F)(F)F)ccc2C(=O)C2=C(O)CCCC2=O)C1=O` [Example 1-104], the logP result is on record as “(I-1) logP = 2.04^a)”.

As for `O=C(Nc1c(Cl)ccc(C(=O)C2=C(O)CCCC2=O)c1Cl)NN1CCCC1` [Example 1-101], the logP entry was “(I-2) logP = 1.94^a)”.

Regarding `CC(C)N1CCCN(C(=O)Nc2c(Cl)ccc(C(=O)C3=C(O)CCCC3=O)c2Cl)C1=O` [Example 1-25], the logP entry was “(I-2) logP = 2.98^a)”.

On to `CCN(CC)C(=O)Nc1cc(C(F)(F)F)ccc1C(=O)OC` [IIIa-17], for which the logP result was “logP = 3.10^a)”.

For the compound `CONC(=O)Nc1c(Cl)ccc(C(=O)C2=C(O)CCCC2=O)c1Cl` [Example 1-108], the logP result is given as “(I-2) logP = 1.58^a)”.

As for `CCCNC(=O)Nc1c(Cl)ccc(C(=O)C2=C(O)CCCC2=O)c1Cl` [Example 1-107], the logP result is given as “(I-2) logP = 1.98^a)”.

Consider `CCN(CC)C(=O)Nc1c(Cl)ccc(C(=O)OC)c1Cl` [IIIa-9], for which the logP result is recorded as “logP = 2.02^a)”.

Regarding `CCN(C)C(=O)Nc1c(Cl)ccc(C(=O)C2=C(O)CCCC2=O)c1Cl` [Example 1-170], the logP entry was “(I-2) logP = 1.91^a)”.

`CON(C)C(=O)Nc1c(Cl)ccc(C(=O)C2=C(Sc3ccccc3)CCCC2=O)c1Cl` [Example 1-161]: the logP entry is “(I-2) Y = SC6H5 logP = 2.98^a)”.

Take `COC(=O)c1ccc(Cl)c(NC(=O)N2CCCN(CC(C)C)C2=O)c1Cl` [IIIa-21]: the logP entry is “logP = 3.43^a)”.

For `COc1cc(NC(=O)N2CCN(C)C2=O)ccc1C(=O)C1=C(O)CCCC1=O` [Example 1-110], the logP entry was “(I-3) logP = 1.93^a)”.

Consider `O=C1CCCC(O)=C1C(=O)c1ccc(Cl)c(NC(=O)c2ccco2)c1Cl` [Example 1-147], for which the logP result is listed as “(I-2) logP = 2.08^a)”.

For the compound `O=C1CCCC(O)=C1C(=O)c1ccc(Cl)c(NC(=O)N2CCCN(C3CCCCC3)C2=O)c1Cl` [Example 1-103], the logP entry is “(I-2) logP = 3.86^a)”.

On to `O=C1CCCC(O)=C1C(=O)c1ccc(Cl)c(NC(=O)c2cccs2)c1Cl` [Example 1-111], for which the logP entry was “(I-2) logP = 2.34^a)”.

On to `CC(C)NC(=O)Nc1c(Cl)ccc(C(=O)C2=C(O)CCCC2=O)c1Cl` [Example 1-12], for which the logP entry is “(I-2) logP = 1.99^a)”.

As for `COCCN(C)C(=O)Nc1c(Cl)ccc(C(=O)C2=C(O)CCCC2=O)c1Cl` [Example 1-132], the logP result is given as “(I-2) logP = 2.04^a)”.

As to `O=C(NCc1ccccc1)Nc1c(Cl)ccc(C(=O)C2=C(O)CCCC2=O)c1Cl` [Example 1-142], the logP entry is “(I-2) logP = 2.37^a)”.

`NC(=O)Nc1c(Cl)ccc(C(=O)C2=C(O)CCCC2=O)c1Cl` [Example 1-106]: the logP result is recorded as “(I-2) logP = 1.29^a)”.

For the compound `COCCCNC(=O)Nc1c(Cl)ccc(C(=O)C2=C(O)CCCC2=O)c1Cl` [Example 1-172], the logP result is listed as “(I-2) logP = 1.72^a)”.

On to `CN1CCN(C(=O)Nc2cc(C(F)(F)F)ccc2C(=O)C2=C(O)CCCC2=O)C1=O` [Example 1-100], for which the logP result is recorded as “(I-1) logP = 2.57^a)”.

On to `CCONC(=O)Nc1c(Cl)ccc(C(=O)C2=C(O)CCCC2=O)c1Cl` [Example 1-136], for which the logP entry was “(I-2) logP = 1.88^a)”.

Consider `CC(C)(C)NC(=O)Nc1c(Cl)ccc(C(=O)C2=C(O)CCCC2=O)c1Cl` [Example 1-168], for which the logP result is reported as “(I-2) logP = 2.41^a)”.

Consider `COC(=O)c1ccc(Cl)c(NC(=O)N2CCN(C)CC2)c1Cl` [IIIa-8], for which the logP entry is “logP = 0.50^a)”.

Turning to `O=C(Nc1c(Cl)ccc(C(=O)C2=C(O)CCCC2=O)c1Cl)NN1CCCCC1` [Example 1-160], the logP entry is “(I-2) logP = 2.52^a)”.

`CCN(C(=O)Nc1c(Cl)ccc(C(=O)C2=C(O)CCCC2=O)c1Cl)C(C)C` [Example 1-169]: the logP result is reported as “(I-2) logP = 2.49^a)”.

Regarding `CNC(=O)Nc1c(Cl)ccc(C(=O)C2=C(O)CCCC2=O)c1Cl` [Example 1-8], the logP result was “(I-2) logP = 1.46^a)”.

Consider `CCN(CC)C(=O)Nc1c(Cl)ccc(C(=O)C2=C(O)CCCC2=O)c1Cl` [Example 1-7], for which the logP entry was “(I-2) logP = 2.21^a)”.

With `CCCN(CCC)C(=O)Nc1c(Cl)ccc(C(=O)C2=C(O)CCCC2=O)c1Cl` [Example 1-109], the logP result is given as “(I-2) logP = 2.95^a)”.

With `CC(C)N(C)C(=O)Nc1c(Cl)ccc(C(=O)C2=C(O)CCCC2=O)c1Cl` [Example 1-166], the logP result was “(I-2) logP = 2.17^a)”.

As to `CCN1CCCN(C(=O)Nc2c(Cl)ccc(C(=O)C3=C(O)CCCC3=O)c2Cl)C1=O` [Example 1-23], the logP result is listed as “(I-2) logP = 2.65^a)”.

On to `O=C1CCCC(O)=C1C(=O)c1ccc(Cl)c(NC(=O)C2=NOCC2)c1Cl` [Example 1-145], for which the logP entry is recorded as “(I-2) logP = 2.02^a)”.

The same data set, now with this note: marked a): acidic range, 0.1% aqueous phosphoric acid/acetonitrile gradient, reversed-phase HPLC C 18, 43° C.
Consider `CON(C)C(=O)Nc1c(Cl)ccc(C(=O)C2=C(O)C3CCC(C3)C2=O)c1Cl` (stereo not shown) [Example 5-1], for which the logP result was “(I-2) logP = 2.23^a)”.

(Values after patent US7670991B2, “Substituted benzoylcyclohexenones and their use as herbicidal agents” (Bayer CropScience AG, priority 2001, dated 2010).)
